Legend:
BSA [1] = target: T1, BSA (Bos taurus, UniProt P02769); experiment: FTIR of BSA eluted from PFOc into PBS; parameters: species or system bovine; details: dispersed BSA extracted from PFOc into PBS
Procedure: FIG. 47 depicts stacked FTIR spectra of PD-7, BSA and the PD-7:BSA complex after elution into PBS.
To test this assertion, Fourier transform infrared (FTIR) spectroscopy was performed on BSA samples following extraction of the PD-7 dispersed protein from PFOc into a physiologic buffer. Selected model protein BSA was diluted to […], and PFNA was diluted to 2 mM in PBS. The intermolecular interactions were initiated by adding an equal amount of BSA and PFNA samples into a centrifuge tube. After 1-hour incubation, samples were frozen at −80 °C, and lyophilize overnight to remove water. FTIR spectrometry was then performed on powdered samples using LN-MCT detector (4000-800 cm-1, backward output). Data is represented by average+−SD of wavenumber among replicates depicting corresponding characteristic bonds. An equal volume of PBS was added to the BSA:PD-7 sample in PFOc, and vortexing the phase separated mixture for ~2 seconds.

rabbit serum IgG = experiment: Circular dichroism with PFNA, rabbit serum IgG; details: 0.001-1 mM PFNA
Text: (§1) FIGS. 14A-14L depict circular dichroism spectra of Hb (FIG. 14A), GFP (FIG. 14B), BSA (FIG. 14C), β-Gal (FIG. 14D), rabbit serum IgG (FIG. 14E), transferrin (FIG. 14F), and urease (FIG. 14G) in the absence (black line) or presence (dashed lines) of PFNA. Increasing dash sequence indicated higher concentration of PFNA. FIG. 14H: Change in molar ellipticity at 216 nm (Δθ216) of PFNA-treated proteins, relative to native controls, as a function of increasing ligand concentration. FIG. 14I: Percentage change in secondary structural motifs of Hb, β-Gal and IgG between the native protein and 1 mM PFNA treated samples. β-sheet structures were further differentiated into parallel and antiparallel conformations. Hb, β-Gal and IgG were prioritized for analysis based on their significant spectral shift in the presence of 1 mM PFNA. FIGS. 14J-14L: Sensograms for BSA (FIG. 14J), β-gal (FIG. 14K), and IgG (FIG. 14L) showing relative response (R.U.) at 10, 25, 50, 75, and 100 μM.
(§2) To explore PFNA-mediated changes in protein structure, dose-response circular dichroism (CD) studies were performed (FIG. 14A-14G). […] Remarkably, these structural changes endured even at sub-stoichiometric PFNA:protein ratios (see 0.001 mM PFNA in […]; protein concentration was constant at 0.01 mM).

β-gal = experiment: Circular dichroism with PFNA, β-gal; details: 0.001-1 mM PFNA
Text: as §1, §2

BSA [2] = target: T1, BSA; experiment: 1H and 19F NMR of dispersant:BSA complex; assay type: binding, bovine
Procedure: FIG. 43 depicts a superimposed ^1H NMR spectra of PD-7 (60 mM) and PD-7:BSA (1000:1 molar ratio) complex.
FIG. 44 depicts a superimposed ^1H NMR spectra of PD-2 (60 mM) and PD-2:BSA (1000:1 molar ratio) complex.
FIG. 45 depicts the change in ^1H (—COOH) and ^19F (—CF3) NMR chemical shift (Δδ) for PD-2 (grey) and PD-7 (black) following coordination with the BSA protein.
1H NMR and 19F NMR spectroscopy were employed to examine the biophysical interactions between BSA and PD-7 in the fluorous solvent. 60 mM PFNA solution in PFOc was aliquoted into lyophilized BSA stocks to achieve 1000:1 PFNA/BSA molar ratio then transferred to thin wall precision tube with Norell Coaxial inserts containing D2O as locking solvent. NMR spectra were collected on a Bruker NEO-400, equipped with a double resonance broadband observe iProbe (capable of automatic tuning and matching) for 1H and 19F nuclei observation. […] This is a 7-fold change in chemical shift relative to PD-7:BSA (FIG. 45).

tested proteins = experiment: Induction of non-native protein secondary structure
Procedure: as §2
Prior studies have shown ≥15 vol % of TFE in water, which represents a 2M total concentration, was required to induce protein structural transitions. […] In addition, PFNA appeared to favor modulation of […] structures over α-helices, which can be interpreted by monitoring changes in both ellipticity at 216 nm (FIG. 14H) and percentage of secondary structural motifs (FIG. 14I) relative to the native protein. […] The dose-dependent reduction in the signal after analyte injection may have been due to conformational change of the target protein, as has been observed in prior studies.

[3] = Pharmacokinetics of β-Gal formulations in C57BL/6 mice (Example 4); assay type: in vivo; details: i.v.
Text: FIG. 55 depicts time-dependent enzymatic activity of β-Gal in plasma delivered systemically in either saline (β-GalSaline) or extracted PFOc (β-GalExt. PFOc). Data shown as average±s.d. of n=5 technical replicates. Statistical significance determined using Student's t-test and represented as n.s.=not significant, * p<0.05.
To test whether PD-7 coating and PFOc dispersion influences the pharmacokinetic properties of formulated proteins, f-Gal formulations were intravenously administered to C57BL/6 mice and monitored time dependent serum bioavailability (FIG. 55). This experiment utilized a fluorescent conversion substrate to monitor the amount of functional protein in serum, thereby investigating changes to both bioavailability and bioactivity. Due to the large solution volumes administered (150 μL, ~15% of mouse blood volume), PFOc dispersed proteins were extracted into sterile saline before injection to avoid hyponatremia. Future applications in larger mammals would allow direct injection of the fluorous dispersion, without pre-extraction, due to the increased blood volumes and bio-inert nature of most perfluorocarbon solvents. […] However, variance in the data yielded statistical significance only at the t=0 hr and t=3 hr time points.

[4] = presence of BSA, 1000:1 molar ratio, in PFOc

T1 sequence (P02769 25-607): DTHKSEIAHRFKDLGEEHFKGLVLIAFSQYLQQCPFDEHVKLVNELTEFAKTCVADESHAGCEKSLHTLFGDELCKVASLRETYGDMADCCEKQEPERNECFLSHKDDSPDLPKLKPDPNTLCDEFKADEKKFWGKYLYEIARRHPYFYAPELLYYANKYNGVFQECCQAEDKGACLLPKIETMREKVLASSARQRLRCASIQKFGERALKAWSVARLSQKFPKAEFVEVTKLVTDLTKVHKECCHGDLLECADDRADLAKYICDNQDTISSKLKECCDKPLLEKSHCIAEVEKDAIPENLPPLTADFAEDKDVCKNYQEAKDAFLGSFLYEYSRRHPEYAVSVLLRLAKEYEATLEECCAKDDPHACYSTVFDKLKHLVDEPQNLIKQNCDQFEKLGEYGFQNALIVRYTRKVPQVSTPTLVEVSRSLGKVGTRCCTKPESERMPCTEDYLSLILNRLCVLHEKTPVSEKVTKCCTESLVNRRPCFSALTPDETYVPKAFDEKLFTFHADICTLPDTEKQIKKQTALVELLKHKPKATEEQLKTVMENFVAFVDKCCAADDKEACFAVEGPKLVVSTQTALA

Molecule | dispersant spectral feature after extraction into physiologic buffer/PBS (BSA [1]) | CD structural change, rabbit serum IgG (rabbit serum IgG) | CD structural change, β-gal (β-gal) | change in chemical shift relative to PD-7:BSA (BSA [2]; 1H —COOH, PD-2 vs PD-7) | change in chemical shift of CF3 (Δδ, 19F NMR) (BSA [2]; [4]) | downfield shift of —COOH hydrogen (1H NMR) (BSA [2]; [4]) | concentration sufficient to induce ordered non-native structure (tested proteins; many of the tested proteins) | increase in potency in inducing non-native protein secondary structure relative to TFE (tested proteins; relative to trifluoroethanol) | serum half-life t1/2 ([3]; native β-Gal administered in saline) | serum half-life t1/2 ([3]; β-Gal from PFOc formulations, extracted into saline)
O=C(O)C(F)(F)C(F)(F)C(F)(F)C(F)(F)C(F)(F)C(F)(F)C(F)(F)C(F)(F)F [Compound 7, perfluoronanonic acid] | showed the presence of C—F stretching vibrations (1500-1000 cm-1) | marked increase in β-sheet content | marked increase in β-sheet content | 7 fold | 0.006 ppm | 0.56 ppm | 0.001 mM | 10^6 | – | –
β-Gal: β-Galactosidase (β-Gal), dissolved in PBS/saline or dispersed in PFOc | – | – | – | – | – | – | – | – | 7.2 min | 30 min
